# “Also recorded” adds a separate entry of the source. Read-outs that look alike come from different tables or passages of the source.
# What was measured:
# AFDH [1] = type: biochemical, Anthracobia melaloma; settings: for Relative activity (%): None = 100
# AFDH [2] = tested on: AFDH
# AFDH [3] = tested on: AFDH; remark: listed apart in the source
# [4] = substrate 100 μl, 24.75 μmol/ml
# [5] = substrate 120 μl, 29.69 μmol/ml
# [6] = substrate 150 μl, 37.12 μmol/ml
# [7] = substrate 170 μl, 42.07 μmol/ml
# [8] = substrate 200 μl, 49.49 μmol/ml
# [9] = substrate 250 μl, 61.86 μmol/ml
# [10] = substrate 300 μl, 74.24 μmol/ml
# [11] = substrate 100 μl, 12.79 μmol/ml
# [12] = substrate 130 μl, 16.63 μmol/ml
# [13] = substrate 160 μl, 20.46 μmol/ml
# [14] = substrate 180 μl, 23.02 μmol/ml
# [15] = substrate 200 μl, 25.58 μmol/ml
# [16] = substrate 230 μl, 29.42 μmol/ml
# [17] = substrate 260 μl, 33.25 μmol/ml
# [18] = substrate 300 μl, 38.37 μmol/ml
# [19] = substrate 400 μl, 51.16 μmol/ml
# [20] = substrate 450 μl, 57.56 μmol/ml
# [21] = substrate 480 μl, 61.39 μmol/ml
smiles,measurement,setting,value
[Cl-].[Cl-].[Zn+2] [ZnCl2],effect on AFDH activity,AFDH [1],inhibited
same,Activity units,AFDH [1]; effector 5 mM,551.7 units
same,OD263,AFDH [1]; effector 5 mM,0.331
same,Activity units,AFDH [1]; effector 10 mM,435.0 units
same,OD263,AFDH [1]; effector 10 mM,0.261
same,Activity units,AFDH [1]; effector 15 mM,315.0 units
same,OD263,AFDH [1]; effector 15 mM,0.189
same,Activity units,AFDH [1]; effector 20 mM,241.7 units
same,OD263,AFDH [1]; effector 20 mM,0.145
same,Activity units,AFDH [1]; effector 25 mM,220.0 units
same,OD263,AFDH [1]; effector 25 mM,0.132
same,Activity units,AFDH [1]; effector 30 mM,201.7 units
same,OD263,AFDH [1]; effector 30 mM,0.121
same,Activity units,AFDH [1]; effector 40 mM,158.3 units
same,OD263,AFDH [1]; effector 40 mM,0.095
same,Activity units,AFDH [1]; effector 50 mM,135.0 units
same,OD263,AFDH [1]; effector 50 mM,0.081
same,Relative activity (%),AFDH [1]; inhibitor 10 mM,52.52%
O=C(O)CN(CCN(CC(=O)O)CC(=O)O)CC(=O)O [EDTA],effect on AFDH activity,AFDH [1],inhibited
same,Relative activity (%),AFDH [1]; inhibitor 10 mM,59%
same,Relative activity (%),AFDH [1]; inhibitor 50 mM,16%
[Ca+2].[Cl-].[Cl-] [CaCl2],concentration found to increase the activity with a factor of two,AFDH [1],10 mM
same,effect on AFDH activity,AFDH [1],increased
same,Activity units,AFDH [1]; effector 5 mM,1245.0 units
same,OD263,AFDH [1]; effector 5 mM,0.747
same,Activity units,AFDH [1]; effector 10 mM,1442.7 units
same,OD263,AFDH [1]; effector 10 mM,0.865
same,Activity units,AFDH [1]; effector 15 mM,1455.0 units
same,OD263,AFDH [1]; effector 15 mM,0.873
same,Activity units,AFDH [1]; effector 20 mM,1531.7 units
same,OD263,AFDH [1]; effector 20 mM,0.919
same,Activity units,AFDH [1]; effector 25 mM,1561.7 units
same,OD263,AFDH [1]; effector 25 mM,0.937
same,Activity units,AFDH [1]; effector 30 mM,1601.7 units
same,OD263,AFDH [1]; effector 30 mM,0.961
same,Activity units,AFDH [1]; effector 40 mM,1473.3 units
same,OD263,AFDH [1]; effector 40 mM,0.884
same,Activity units,AFDH [1]; effector 50 mM,1466.7 units
same,OD263,AFDH [1]; effector 50 mM,0.880
[Cl-].[Na+] [NaCl],concentration found to increase the activity with a factor of two,AFDH [1],50 mM
same,Activity units,AFDH [1]; NaCl 0.05 M,1263.3 units
same,OD263,AFDH [1]; NaCl 0.05 M,0.758
same,Activity units,AFDH [1]; NaCl 0.1 M,1348.3 units
same,OD263,AFDH [1]; NaCl 0.1 M,0.809
same,Activity units,AFDH [1]; NaCl 0.15 M,1381.7 units
same,OD263,AFDH [1]; NaCl 0.15 M,0.829
same,Activity units,AFDH [1]; NaCl 0.2 M,1415.0 units
same,OD263,AFDH [1]; NaCl 0.2 M,0.849
same,Activity units,AFDH [1]; NaCl 0.3 M,1453.3 units
same,OD263,AFDH [1]; NaCl 0.3 M,0.872
same,Activity units,AFDH [1]; NaCl 0.4 M,1338.3 units
same,OD263,AFDH [1]; NaCl 0.4 M,0.803
same,Activity units,AFDH [1]; NaCl 0.5 M,1301.7 units
same,OD263,AFDH [1]; NaCl 0.5 M,0.781
same,Activity units,AFDH [1]; NaCl 0.6 M,1286.7 units
same,OD263,AFDH [1]; NaCl 0.6 M,0.772
same,Activity units,AFDH [1]; NaCl 0.7 M,1271.7 units
same,OD263,AFDH [1]; NaCl 0.7 M,0.763
same,Activity units,AFDH [1]; NaCl 0.8 M,1223.3 units
same,OD263,AFDH [1]; NaCl 0.8 M,0.734
same,Activity units,AFDH [1]; NaCl 0.9 M,1141.7 units
same,OD263,AFDH [1]; NaCl 0.9 M,0.685
same,effect on AFDH activity,AFDH [1]; listed as Na^+,increased; also recorded: positive effect
O=CC(=O)[C@@H](O)[C@H](O)[C@H](O)CO [D-glucosone],Km,"AFDH [2]; read-out: apparent Km (concentration that yielded half of the maximum activity), substrate D-glucosone, pH 6.7, 22 °C",27.6 mM
same,Activity units,"AFDH [2]; substrate 5 μl, 1.24 μmol/ml",33.33 units
same,OD265,"AFDH [2]; substrate 5 μl, 1.24 μmol/ml",0.050
same,Activity units,"AFDH [2]; substrate 10 μl, 2.47 μmol/ml",36.00 units
same,OD265,"AFDH [2]; substrate 10 μl, 2.47 μmol/ml",0.054
same,Activity units,"AFDH [2]; substrate 20 μl, 4.95 μmol/ml",57.33 units
same,OD265,"AFDH [2]; substrate 20 μl, 4.95 μmol/ml",0.086
same,Activity units,"AFDH [2]; substrate 30 μl, 7.42 μmol/ml",79.30 units
same,OD265,"AFDH [2]; substrate 30 μl, 7.42 μmol/ml",0.119
same,Activity units,"AFDH [2]; substrate 40 μl, 9.90 μmol/ml",101.33 units
same,OD265,"AFDH [2]; substrate 40 μl, 9.90 μmol/ml",0.152
same,Activity units,"AFDH [2]; substrate 50 μl, 12.37 μmol/ml",114.00 units
same,OD265,"AFDH [2]; substrate 50 μl, 12.37 μmol/ml",0.171
same,Activity units,"AFDH [2]; substrate 60 μl, 14.85 μmol/ml",140.67 units
same,OD265,"AFDH [2]; substrate 60 μl, 14.85 μmol/ml",0.211
same,Activity units,"AFDH [2]; substrate 70 μl, 17.32 μmol/ml",164.67 units
same,OD265,"AFDH [2]; substrate 70 μl, 17.32 μmol/ml",0.247
same,Activity units,"AFDH [2]; substrate 80 μl, 19.80 μmol/ml",180.67 units
same,OD265,"AFDH [2]; substrate 80 μl, 19.80 μmol/ml",0.271
same,Activity units,"AFDH [2]; substrate 90 μl, 22.27 μmol/ml",215.30 units
same,OD265,"AFDH [2]; substrate 90 μl, 22.27 μmol/ml",0.323
same,Activity units,AFDH [2]; [4],230.67 units
same,OD265,AFDH [2]; [4],0.346
same,Activity units,AFDH [2]; [5],262.67 units
same,OD265,AFDH [2]; [5],0.379
same,Activity units,AFDH [2]; [6],310.20 units
same,OD265,AFDH [2]; [6],0.394
same,Activity units,AFDH [2]; [7],352.62 units
same,OD265,AFDH [2]; [7],0.529
same,Activity units,AFDH [2]; [8],394.62 units
same,OD265,AFDH [2]; [8],0.592
same,Activity units,AFDH [2]; [9],407.33 units
same,OD265,AFDH [2]; [9],0.611
same,Activity units,AFDH [2]; [10],414.67 units
same,OD265,AFDH [2]; [10],0.622
same,Vmax,"AFDH [2]; substrate D-glucosone, pH 6.7, 22 °C",416 units
O[C@@H](CS)[C@@H](O)CS [DTT],effect on AFDH activity,AFDH [1],inhibited
same,Relative activity (%),AFDH [1]; inhibitor 10 mM,57%
"O=C1CO[C@H](CO)[C@@H](O)[C@@H]1O [AF, 1,5-anhydro-D-fructose]",Km,"AFDH [3]; read-out: apparent Km (concentration that yielded half of the maximum activity), substrate AF, pH 6.7, 22 °C",12.6 mM
same,Activity units,"AFDH [3]; substrate 5 μl, 0.64 μmol/ml",39.33 units
same,OD263,"AFDH [3]; substrate 5 μl, 0.64 μmol/ml",0.059
same,Activity units,"AFDH [3]; substrate 10 μl, 1.28 μmol/ml",62.67 units
same,OD263,"AFDH [3]; substrate 10 μl, 1.28 μmol/ml",0.094
same,Activity units,"AFDH [3]; substrate 20 μl, 2.56 μmol/ml",101.33 units
same,OD263,"AFDH [3]; substrate 20 μl, 2.56 μmol/ml",0.152
same,Activity units,"AFDH [3]; substrate 30 μl, 3.84 μmol/ml",182.67 units
same,OD263,"AFDH [3]; substrate 30 μl, 3.84 μmol/ml",0.274
same,Activity units,"AFDH [3]; substrate 40 μl, 5.12 μmol/ml",210.67 units
same,OD263,"AFDH [3]; substrate 40 μl, 5.12 μmol/ml",0.316
same,Activity units,"AFDH [3]; substrate 50 μl, 6.40 μmol/ml",218.67 units
same,OD263,"AFDH [3]; substrate 50 μl, 6.40 μmol/ml",0.328
same,Activity units,"AFDH [3]; substrate 60 μl, 0.46 μmol/ml",256.00 units
same,OD263,"AFDH [3]; substrate 60 μl, 0.46 μmol/ml",0.384
same,Activity units,"AFDH [3]; substrate 70 μl, 8.95 μmol/ml",327.33 units
same,OD263,"AFDH [3]; substrate 70 μl, 8.95 μmol/ml",0.491
same,Activity units,AFDH [3]; [11],412.00 units
same,OD263,AFDH [3]; [11],0.618
same,Activity units,AFDH [3]; [12],456.67 units
same,OD263,AFDH [3]; [12],0.685
same,Activity units,AFDH [3]; [13],511.33 units
same,OD263,AFDH [3]; [13],0.767
same,Activity units,AFDH [3]; [14],549.33 units
same,OD263,AFDH [3]; [14],0.824
same,Activity units,AFDH [3]; [15],561.33 units
same,OD263,AFDH [3]; [15],0.842
same,Activity units,AFDH [3]; [16],594.67 units
same,OD263,AFDH [3]; [16],0.892
same,Activity units,AFDH [3]; [17],609.33 units
same,OD263,AFDH [3]; [17],0.914
same,Activity units,AFDH [3]; [18],646.67 units
same,OD263,AFDH [3]; [18],0.97
same,Activity units,AFDH [3]; [19],738.67 units
same,OD263,AFDH [3]; [19],1.108
same,Activity units,AFDH [3]; [20],767.33 units
same,OD263,AFDH [3]; [20],1.151
same,Activity units,AFDH [3]; [21],772.67 units
same,OD263,AFDH [3]; [21],1.159
same,Vmax,"AFDH [3]; substrate AF, pH 6.7, 22 °C",769 units
[Cl-].[Cl-].[Mg+2] [MgCl2],concentration found to increase the activity with a factor of two,AFDH [1],25 mM
same,effect on AFDH activity,AFDH [1],increased
same,Activity units,AFDH [1]; effector 5 mM,1053.3 units
same,OD263,AFDH [1]; effector 5 mM,0.632
same,Activity units,AFDH [1]; effector 10 mM,1228.3 units
same,OD263,AFDH [1]; effector 10 mM,0.737
same,Activity units,AFDH [1]; effector 15 mM,1255.0 units
same,OD263,AFDH [1]; effector 15 mM,0.753
same,Activity units,AFDH [1]; effector 20 mM,1295.0 units
same,OD263,AFDH [1]; effector 20 mM,0.777
same,Activity units,AFDH [1]; effector 25 mM,1316.7 units
same,OD263,AFDH [1]; effector 25 mM,0.790
same,Activity units,AFDH [1]; effector 30 mM,1291.7 units
same,OD263,AFDH [1]; effector 30 mM,0.775
same,Activity units,AFDH [1]; effector 40 mM,1243.3 units
same,OD263,AFDH [1]; effector 40 mM,0.746
same,Activity units,AFDH [1]; effector 50 mM,1186.7 units
same,OD263,AFDH [1]; effector 50 mM,0.712
